# Earlier results in patent publication US20230083525A1, “NOVEL COMPOSITION FOR REDUCING STRESS DISORDERS” (SOCIETE DES PRODUITS NESTLE S.A., priority 2019, published 2023).
# Conditions: value used to convert plasma AUC to production in the colon
row,systemic availability [%],Structure (SMILES)
1,36,CC(=O)O [acetate]
2,2,CCCC(=O)O [butyrate]
